Results reported in US20120115852A1, “HETEROCYCLIC COMPOUNDS AS AUTOTAXIN INHIBITORS” (Merck Patent Gesellschaft Mit Beschrankter Haftung, priority 2009, published 2012).

Target: T1, recombinant autotaxin (Homo sapiens, UniProt Q13822)
T1 construct: made in house; host or cells: Hi5 insect cells (baculovirus)
Experiment: Autotaxin test (enzyme test), Amplex Red fluorescence with LPC substrate
Type: biochemical
Settings: autotaxin inhibition (enzyme test); for remaining activity at 10 µM: 10 μM compound, read-out: % Control at 10 μM
Outline: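 Purified recombinant autotaxin (baculovirus Hi5-expressed) pre-incubated with compound 30 min at 22° C, then LPC (final 75 μM) added and reacted 90 min at 37° C in Tris pH 8 buffer with CaCl2. Choline released was coupled via alkaline phosphatase, choline oxidase and peroxidase to Amplex Red; resorufin fluorescence read in kinetic mode (ex 485/em 612 nm).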

SMILES | remaining activity at 10 µM [%] | IC50 [nM]
Cn1cc(CCC(=O)N2CCN3C(=O)c4cc(-c5ccc(Cl)cc5F)ccc4NC(=O)[C@H]3C2)cn1 [Compound A97, (R)-7-(4-Chloro-2-fluorophenyl)-2-[3-(1-methyl-1H-pyrazol-4-yl)propionyl]-1,3,4,11a-tetrahydro-2H,10H-2,4a,10-triazadibenzo[a,d]cycloheptene-5,11-dione] | 19 | 100 to 1000
O=C1Nc2ccc(-c3ccc(Cl)cc3)cc2C(=O)N2CCN(C(=O)CO)C[C@H]12 [Compound B14] | 80 | –
O=C1Nc2ccc(-c3ccc(Cl)cc3F)cc2C(=O)N2CCN(C(=O)[C@H]3NCC[C@@H]3O)CC12 (stereo partly drawn) [Compound A69, 7-(4-Chloro-2-fluorophenyl)-2-((2S,3S)-3-hydroxy-pyrrolidine-2-carbonyl)-1,3,4,11a-tetrahydro-2H,10H-2,4a,10-triazadibenzo[a,d]cycloheptene-5,11-dione] | 58 | –
O=C1Nc2ccc(-c3cccs3)cc2C(=O)N2CCN(C(=O)[C@@H](O)c3ccccc3)C[C@H]12 [Compound A3, (R)-2-((S)-2-Hydroxy-2-phenylacetyl)-7-thiophen-2-yl-1,3,4,11a-tetrahydro-2H,10H-2,4a,10-triaza-dibenzo[a,d]cycloheptene-5,11-dione] | 86 | –
NC(=O)C(=O)N1CCN2C(=O)c3cc(-c4ccco4)ccc3NC(=O)[C@H]2C1 [Compound A4, 2-((R)-7-Furan-2-yl-5,11-dioxo-3,4,5,10,11,11a-hexahydro-1H-2,4a,10-triazadibenzo[a,d]cyclo-hepten-2-yl)-2-oxoacetamide] | 75 | –
O=C1Nc2ccc(-c3ccccc3)cc2C(=O)N2CCN(C(=O)C3CCCCC3)C[C@H]12 [Compound B13] | 53 | –
CC(C)(C)CC(=O)N1CCN2C(=O)c3cc(-c4ccc(C(F)(F)F)cc4)ccc3NC(=O)C2C1 (centres unmarked) [Compound A18, 2-(3,3-Dimethylbutyryl)-7-(4-trifluoromethylphenyl)-1,3,4,11a-tetrahydro-2H,10H-2,4a,10-triaza-dibenzo[a,d]cycloheptene-5,11-dione] | 70 | > 1000
O=C1Nc2ccc(-c3ccc(Cl)cc3F)cc2C(=O)N2CCN(C(=O)[C@@H]3CCCN3C3CCNCC3)CC12 (stereo partly drawn) [Compound A99, 7-(4-Chloro-2-fluorophenyl)-2-((S)-1-piperidin-4-yl-pyrrolidine-2-carbonyl)-1,3,4,11a-tetrahydro-2H,10H-2,4a,10-triazadibenzo[a,d]cycloheptene-5,11-dione] | 19 | > 1000
Cc1ccc(-c2ccc3c(c2)C(=O)N2CCN(C(=O)CC(C)(C)C)CC2C(=O)N3)cc1 (centres unmarked) [Compound A105, 2-(3,3-Dimethylbutyryl)-7-p-tolyl-1,3,4,11a-tetrahydro-2H,10H-2,4a,10-triaza-dibenzo[a,d]cycloheptene-5,11-dione] | 22 | > 1000
O=C1Nc2ccc(-c3ccccc3F)cc2C(=O)N2CCN(C(=O)c3ccc4[nH]nnc4c3)CC12 (centres unmarked) [Compound A14, 2-(1H-Benzotriazole-5-carbonyl)-7-(2-fluorophenyl)-1,3,4,11a-tetrahydro-2H,10H-2,4a,10-triaza-dibenzo[a,d]cycloheptene-5,11-dione] | 38 | > 1000
O=C1Nc2ccc(-c3ccc(Cl)cc3)cc2C(=O)N2CCN(C(=O)C(O)c3ccc(Cl)cc3)CC12 (centres unmarked) [Compound A38, 7-(4-Chlorophenyl)-2-[2-(4-chlorophenyl)-2-hydroxyacetyl]-1,3,4,11a-tetrahydro-2H,10H-2,4a,10-triazadibenzo[a,d]cycloheptene-5,11-dione] | 35 | > 1000
CCCc1nn(C)cc1C(=O)N1CCN2C(=O)c3cc(-c4ccc(Cl)cc4)ccc3NC(=O)C2C1 (centres unmarked) [Compound A23, 7-(4-Chlorophenyl)-2-(1-methyl-3-propyl-1H-pyrazole-4-carbonyl)-1,3,4,11a-tetrahydro-2H,10H-2,4a,10-triazadibenzo[a,d]cycloheptene-5,11-dione] | 54 | > 1000
CC(C)(C)[C@@H](N)C(=O)N1CCN2C(=O)c3cc(-c4ccc(Cl)cc4)ccc3NC(=O)C2C1 (stereo partly drawn) [Compound A53, 2-((R)-2-Amino-3,3-dimethylbutyryl)-7-(4-chloro-phenyl)-1,3,4,11a-tetrahydro-2H,10H-2,4a,10-triazadibenzo[a,d]cycloheptene-5,11-dione] | – | > 1000
CC(C)[C@H](N)C(=O)N1CCN2C(=O)c3cc(-c4ccc(Cl)cc4F)ccc3NC(=O)C2C1 (stereo partly drawn) [Compound A59, 2-((S)-2-Amino-3-methylbutyryl)-7-(4-chloro-2-fluorophenyl)-1,3,4,11a-tetrahydro-2H,10H-2,4a,10-triazadibenzo[a,d]cycloheptene-5,11-dione] | -9 | > 1000
NC(=O)CN1C(=O)[C@H]2CN(C(=O)[C@@H]3CCCN3C3CCNCC3)CCN2C(=O)c2cc(-c3ccc(Cl)cc3F)ccc21 [Compound A155] | 10 | 100 to 1000
O=C1Nc2ccc(-c3ccc4c(c3)OCO4)cc2C(=O)N2CCN(C(=O)[C@@H]3CSCN3)C[C@H]12 [Compound B9] | 74 | –
Cc1ccc(-c2ccc3c(c2)C(=O)N2CCN(C(=O)CC(C)(C)C)CC2C(=O)N3)c(F)c1F (centres unmarked) [Compound A82, 7-(2,3-Difluoro-4-methylphenyl)-2-(3,3-dimethyl-butyryl)-1,3,4,11a-tetrahydro-2H,10H-2,4a,10-triazadibenzo[a,d]cycloheptene-5,11-dione] | -16 | 100 to 1000
O=C1Nc2ccc(-c3ccc(Cl)cc3F)cc2C(=O)N2CCN(C(=O)Cc3ccccc3)CC12 (centres unmarked) [Compound A31, 7-(4-Chloro-2-fluorophenyl)-2-phenylacetyl-1,3,4,11a-tetrahydro-2H,10H-2,4a,10-triaza-dibenzo[a,d]cycloheptene-5,11-dione] | 17 | > 1000

SMILES | remaining activity at 10 µM [%] | IC50 [nM]
O=C1Nc2ccc(-c3ccco3)cc2C(=O)N2CCN(C(=O)CO)C[C@H]12 [Compound A6, (R)-7-Furan-2-yl-2-(2-hydroxyacetyl)-1,3,4,11a-tetrahydro-2H,10H-2,4a,10-triazadibenzo[a,d]-cycloheptene-5,11-dione] | 73 | –
CC(C)(C)CC(=O)N1CCN2C(=O)c3cc(-c4ccc(Cl)cc4F)ccc3N(CCC3CCNCC3)C(=O)[C@H]2C1 [Compound A157] | 2 | 100 to 1000
O=C1Nc2ccc(-c3ccc(Cl)cc3F)cc2C(=O)N2CCN(S(=O)(=O)CC3CCCCC3)C[C@H]12 [Compound A174] | 21 | 100 to 1000
CC(C)(CC(=O)O)CC(=O)N1CCN2C(=O)c3cc(-c4ccc(Cl)cc4)ccc3NC(=O)[C@H]2C1 [Compound B8] | 70 | –
CO[C@H](C(=O)N1CCN2C(=O)c3cc(-c4ccc(Cl)cc4)ccc3NC(=O)C2C1)C(C)(C)C (stereo partly drawn) [Compound A138, 7-(4-Chlorophenyl)-2-((S)-2-methoxy-3,3-dimethyl-butyryl)-1,3,4,11a-tetrahydro-2H,10H-2,4a,10-triazadibenzo[a,d]cycloheptene-5,11-dione] | -21 | 100 to 1000
CC(C)(C)CC(=O)N1CCN2C(=O)c3cc(-c4ccc(Cl)cc4F)ccc3N(CC(N)=O)C(=O)C2C1 (centres unmarked) [Compound A145] | 2 | 100 to 1000
CC(C)(C)CC(=O)N1CCN2C(=O)c3cc(Br)ccc3NC(=O)C2C1 (centres unmarked) [Compound A142] | 85 | –
O=C1Nc2ccc(-c3ccc(Cl)cc3)cc2C(=O)N2CCN(C(=O)COc3ccccc3)C[C@H]12 [Compound B21] | 57 | –
Cc1ccc(-c2ccc3c(c2)C(=O)N2CCN(C(=O)CC(C)(C)C)CC2C(=O)N3)c(C)c1 (centres unmarked) [Compound A86, 2-(3,3-Dimethylbutyryl)-7-(2,4-dimethylphenyl)-1,3,4,11a-tetrahydro-2H,10H-2,4a,10-triaza-dibenzo[a,d]cycloheptene-5,11-dione] | 78 | –
O=C1Nc2ccc(-c3ccc(Cl)cc3)cc2C(=O)N2CCN(C(=O)c3ccccc3)CC12 (centres unmarked) [Compound B27] | 59 | > 1000
CC(C)(C)CC(=O)N1CCN2C(=O)c3cc(-c4ccc(Cl)cc4F)ccc3N(CCN3CCOCC3)C(=O)[C@H]2C1 [Compound A148] | 10 | > 1000
CC(C)(C)CC(=O)N1CCN2C(=O)c3cc(-c4ccc(Cl)s4)ccc3NC(=O)C2C1 (centres unmarked) [Compound A129, 7-(5-Chlorothiophen-2-yl)-2-(3,3-dimethylbutyryl)-1,3,4,11a-tetrahydro-2H,10H-2,4a,10-triaza-dibenzo[a,d]cycloheptene-5,11-dione] | 6 | > 1000
O=C1Nc2ccc(-c3ccc(Cl)cc3)cc2C(=O)N2CCN(C(=O)c3cnc[nH]3)CC12 (centres unmarked) [Compound A75, 7-(4-Chlorophenyl)-2-(3H-imidazole-4-carbonyl)-1,3,4,11a-tetrahydro-2H,10H-2,4a,10-triaza-dibenzo[a,d]cycloheptene-5,11-dione] | 55 | –
O=C1Nc2ccc(-c3ccccc3F)cc2C(=O)N2CCN(C(=O)C3CCCCC3)C[C@H]12 [Compound B19] | 41 | > 1000
O=C1Nc2ccc(-c3ccc(Cl)cc3)cc2C(=O)N2CCN(C(=O)c3cccs3)C[C@H]12 [Compound B20] | 71 | –
CN1CCC(C)(C(=O)N2CCN3C(=O)c4cc(-c5ccc(Cl)cc5)ccc4NC(=O)C3C2)CC1 (centres unmarked) [Compound A107, 7-(4-Chlorophenyl)-2-(1,4-dimethylpiperidine-4-carbonyl)-1,3,4,11a-tetrahydro-2H,10H-2,4a,10-triazadibenzo[a,d]cycloheptene-5,11-dione] | 51 | > 1000
O=C([C@@H]1CCCN1C1CCNCC1)N1CCN2C(=O)c3cc(-c4ccc(Cl)cc4F)ccc3N(CCN3CCOCC3)C(=O)[C@H]2C1 [Compound A153] | 21 | > 1000
